# Measured values taken from PMC8799717, “Pharmacological targeting PIKfyve and tubulin as an effective treatment strategy for double-hit lymphoma” (Cell Death Discovery, 2022).
# Assays:
# Assay in all cases: biochemical
# Set-up in all cases: KINOMEscan active-site-directed competition binding panel, 468 kinases, percent of DMSO control at 1 uM
# Conditions in all cases: KINOMEscan binding, percent of DMSO control; read-out: Ctrl%
# BMPR2 = BMPR2 (Homo sapiens, UniProt Q13873)
# CDK7 = CDK7 (Homo sapiens, UniProt P50613)
# CDK9 = CDK9 (Homo sapiens, UniProt P50750)
# CSNK1A1L = CSNK1A1L (Homo sapiens, UniProt Q8N752)
# CSNK1D = CSNK1D (Homo sapiens, UniProt P48730)
# CSNK1G2 = CSNK1G2 (Homo sapiens, UniProt P78368)
# EGFR(G719C) = EGFR(G719C) (Homo sapiens, UniProt P00533, G719C)
# EGFR(L861Q) = EGFR(L861Q) (Homo sapiens, UniProt P00533, L861Q)
# EGFR(T790M) = EGFR(T790M) (Homo sapiens, UniProt P00533, T790M)
# FGFR3(G697C) = FGFR3(G697C) (Homo sapiens, UniProt P22607, G697C)
# IKK-alpha = molecular target: T1, IKK-alpha (Homo sapiens, UniProt O15111)
# T1 construct: gene CHUK
# LATS2 = LATS2 (Homo sapiens, UniProt Q9NRM7)
# MARK3 = MARK3 (Homo sapiens, UniProt P27448)
# MST4 = molecular target: T2, MST4 (Homo sapiens, UniProt Q9P289)
# T2 construct: gene STK26
# PAK2 = PAK2 (Homo sapiens, UniProt Q13177)
# PFTK1 = molecular target: T3, PFTK1 (Homo sapiens, UniProt O94921)
# T3 construct: gene CDK14
# PIK3C2G = PIK3C2G (Homo sapiens, UniProt O75747)
# PRKD1 = PRKD1 (Homo sapiens, UniProt Q15139)
# PRKD2 = PRKD2 (Homo sapiens, UniProt Q9BZL6)
# [1] = molecular target: T4, RSK2(Kin.Dom.2-C-terminal) (Homo sapiens, UniProt P51812)
# T4 construct: gene RPS6KA3; Kin.Dom.2-C-terminal
# TRKB = molecular target: T5, TRKB (Homo sapiens, UniProt Q16620)
# T5 construct: gene NTRK2
# TRPM6 = TRPM6 (Homo sapiens, UniProt Q9BX84)
# VPS34 = molecular target: T6, VPS34 (Homo sapiens, UniProt Q8NEB9)
# T6 construct: gene PIK3C3
# T5 sequence (Q16620 whole entry): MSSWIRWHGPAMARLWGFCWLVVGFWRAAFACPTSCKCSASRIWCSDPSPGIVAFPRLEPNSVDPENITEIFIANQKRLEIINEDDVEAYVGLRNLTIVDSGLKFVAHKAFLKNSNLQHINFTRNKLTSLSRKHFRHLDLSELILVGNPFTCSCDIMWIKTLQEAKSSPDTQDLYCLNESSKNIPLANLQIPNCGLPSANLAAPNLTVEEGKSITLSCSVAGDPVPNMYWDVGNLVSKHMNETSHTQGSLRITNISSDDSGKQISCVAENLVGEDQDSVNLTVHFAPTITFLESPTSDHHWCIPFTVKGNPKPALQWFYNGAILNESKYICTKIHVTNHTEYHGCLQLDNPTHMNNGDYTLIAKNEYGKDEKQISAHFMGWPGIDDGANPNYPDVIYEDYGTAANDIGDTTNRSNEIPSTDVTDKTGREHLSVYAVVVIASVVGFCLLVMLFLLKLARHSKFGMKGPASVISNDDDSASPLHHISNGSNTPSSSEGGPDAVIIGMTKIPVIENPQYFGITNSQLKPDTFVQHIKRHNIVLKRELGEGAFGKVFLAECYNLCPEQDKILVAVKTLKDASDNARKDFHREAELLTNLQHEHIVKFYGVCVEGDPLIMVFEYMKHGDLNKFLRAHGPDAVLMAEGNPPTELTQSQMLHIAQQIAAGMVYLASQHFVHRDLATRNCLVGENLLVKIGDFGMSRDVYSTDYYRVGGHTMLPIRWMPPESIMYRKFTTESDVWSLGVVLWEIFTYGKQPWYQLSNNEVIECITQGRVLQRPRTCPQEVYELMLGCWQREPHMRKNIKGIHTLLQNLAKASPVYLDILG
# CDK9, sequence (P50750 whole entry): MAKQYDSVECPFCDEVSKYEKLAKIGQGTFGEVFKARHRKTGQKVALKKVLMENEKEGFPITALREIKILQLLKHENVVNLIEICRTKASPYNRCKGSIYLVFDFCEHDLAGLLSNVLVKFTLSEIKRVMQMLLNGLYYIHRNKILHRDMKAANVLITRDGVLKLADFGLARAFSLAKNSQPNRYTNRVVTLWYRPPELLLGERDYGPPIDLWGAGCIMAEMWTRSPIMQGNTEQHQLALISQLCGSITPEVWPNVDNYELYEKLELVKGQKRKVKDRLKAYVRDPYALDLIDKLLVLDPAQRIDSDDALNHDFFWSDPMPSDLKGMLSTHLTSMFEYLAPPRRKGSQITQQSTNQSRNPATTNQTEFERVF
# TRPM6, sequence (Q9BX84 whole entry): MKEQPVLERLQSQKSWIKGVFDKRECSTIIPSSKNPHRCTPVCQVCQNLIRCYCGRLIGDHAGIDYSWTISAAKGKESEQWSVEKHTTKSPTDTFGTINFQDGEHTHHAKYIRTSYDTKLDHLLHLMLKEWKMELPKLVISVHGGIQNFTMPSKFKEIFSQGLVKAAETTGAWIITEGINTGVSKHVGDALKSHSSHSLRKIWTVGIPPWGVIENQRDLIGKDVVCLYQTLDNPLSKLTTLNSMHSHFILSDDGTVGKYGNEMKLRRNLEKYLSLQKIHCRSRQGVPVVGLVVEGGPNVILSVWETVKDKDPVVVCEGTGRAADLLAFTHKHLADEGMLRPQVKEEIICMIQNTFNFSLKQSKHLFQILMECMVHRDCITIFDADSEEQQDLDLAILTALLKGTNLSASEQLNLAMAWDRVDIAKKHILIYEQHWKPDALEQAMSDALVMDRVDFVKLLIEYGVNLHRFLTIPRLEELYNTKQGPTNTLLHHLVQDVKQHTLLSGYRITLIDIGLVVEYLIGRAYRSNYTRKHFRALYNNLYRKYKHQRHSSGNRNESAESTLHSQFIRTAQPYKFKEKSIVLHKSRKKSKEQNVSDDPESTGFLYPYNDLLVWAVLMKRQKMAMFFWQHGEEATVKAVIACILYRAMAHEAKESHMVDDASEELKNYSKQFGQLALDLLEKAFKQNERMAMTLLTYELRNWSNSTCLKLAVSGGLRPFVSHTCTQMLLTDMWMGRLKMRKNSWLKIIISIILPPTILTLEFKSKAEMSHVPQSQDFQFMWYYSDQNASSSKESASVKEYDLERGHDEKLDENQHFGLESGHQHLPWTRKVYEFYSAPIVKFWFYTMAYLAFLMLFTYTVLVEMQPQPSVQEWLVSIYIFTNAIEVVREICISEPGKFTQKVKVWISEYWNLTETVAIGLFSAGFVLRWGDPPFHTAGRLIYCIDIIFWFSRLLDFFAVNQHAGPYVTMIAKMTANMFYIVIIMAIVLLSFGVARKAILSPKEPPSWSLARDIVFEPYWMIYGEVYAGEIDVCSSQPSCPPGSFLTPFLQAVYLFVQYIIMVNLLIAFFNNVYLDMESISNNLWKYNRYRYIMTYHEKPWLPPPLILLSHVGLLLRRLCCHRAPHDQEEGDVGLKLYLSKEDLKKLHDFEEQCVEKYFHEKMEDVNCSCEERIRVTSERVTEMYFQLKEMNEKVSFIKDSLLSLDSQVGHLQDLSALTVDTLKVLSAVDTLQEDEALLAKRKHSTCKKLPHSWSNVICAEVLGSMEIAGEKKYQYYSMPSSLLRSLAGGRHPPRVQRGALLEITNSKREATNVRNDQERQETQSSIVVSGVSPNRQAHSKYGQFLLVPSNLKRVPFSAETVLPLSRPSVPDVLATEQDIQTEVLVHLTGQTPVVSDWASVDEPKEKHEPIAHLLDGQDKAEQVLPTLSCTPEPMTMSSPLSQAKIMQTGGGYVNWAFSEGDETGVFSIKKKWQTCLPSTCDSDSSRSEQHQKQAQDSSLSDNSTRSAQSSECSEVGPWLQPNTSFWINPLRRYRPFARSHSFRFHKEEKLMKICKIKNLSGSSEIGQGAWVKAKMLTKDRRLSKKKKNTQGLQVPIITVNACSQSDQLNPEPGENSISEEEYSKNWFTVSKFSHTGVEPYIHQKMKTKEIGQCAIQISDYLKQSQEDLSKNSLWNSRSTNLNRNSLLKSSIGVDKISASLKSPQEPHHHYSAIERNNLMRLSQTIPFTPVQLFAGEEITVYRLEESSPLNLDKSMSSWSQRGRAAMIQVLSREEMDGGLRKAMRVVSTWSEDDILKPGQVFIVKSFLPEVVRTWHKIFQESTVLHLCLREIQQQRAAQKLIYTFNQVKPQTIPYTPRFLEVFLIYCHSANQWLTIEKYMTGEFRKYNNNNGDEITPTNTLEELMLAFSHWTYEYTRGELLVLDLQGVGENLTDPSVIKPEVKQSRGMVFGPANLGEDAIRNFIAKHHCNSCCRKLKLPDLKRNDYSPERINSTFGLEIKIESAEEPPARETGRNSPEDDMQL
# CSNK1G2, sequence (P78368 whole entry): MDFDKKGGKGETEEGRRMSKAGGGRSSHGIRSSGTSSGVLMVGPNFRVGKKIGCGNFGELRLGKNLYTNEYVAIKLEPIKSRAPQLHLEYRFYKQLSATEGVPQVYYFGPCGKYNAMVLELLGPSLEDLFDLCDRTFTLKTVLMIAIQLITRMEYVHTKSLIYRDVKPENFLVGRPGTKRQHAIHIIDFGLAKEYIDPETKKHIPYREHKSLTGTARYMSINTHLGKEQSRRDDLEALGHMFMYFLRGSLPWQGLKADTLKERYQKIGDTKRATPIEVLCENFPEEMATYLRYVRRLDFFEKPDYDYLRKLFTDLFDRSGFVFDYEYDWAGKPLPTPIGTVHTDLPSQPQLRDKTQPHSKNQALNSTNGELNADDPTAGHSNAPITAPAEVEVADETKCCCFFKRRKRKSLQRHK
# MARK3, sequence (P27448 whole entry): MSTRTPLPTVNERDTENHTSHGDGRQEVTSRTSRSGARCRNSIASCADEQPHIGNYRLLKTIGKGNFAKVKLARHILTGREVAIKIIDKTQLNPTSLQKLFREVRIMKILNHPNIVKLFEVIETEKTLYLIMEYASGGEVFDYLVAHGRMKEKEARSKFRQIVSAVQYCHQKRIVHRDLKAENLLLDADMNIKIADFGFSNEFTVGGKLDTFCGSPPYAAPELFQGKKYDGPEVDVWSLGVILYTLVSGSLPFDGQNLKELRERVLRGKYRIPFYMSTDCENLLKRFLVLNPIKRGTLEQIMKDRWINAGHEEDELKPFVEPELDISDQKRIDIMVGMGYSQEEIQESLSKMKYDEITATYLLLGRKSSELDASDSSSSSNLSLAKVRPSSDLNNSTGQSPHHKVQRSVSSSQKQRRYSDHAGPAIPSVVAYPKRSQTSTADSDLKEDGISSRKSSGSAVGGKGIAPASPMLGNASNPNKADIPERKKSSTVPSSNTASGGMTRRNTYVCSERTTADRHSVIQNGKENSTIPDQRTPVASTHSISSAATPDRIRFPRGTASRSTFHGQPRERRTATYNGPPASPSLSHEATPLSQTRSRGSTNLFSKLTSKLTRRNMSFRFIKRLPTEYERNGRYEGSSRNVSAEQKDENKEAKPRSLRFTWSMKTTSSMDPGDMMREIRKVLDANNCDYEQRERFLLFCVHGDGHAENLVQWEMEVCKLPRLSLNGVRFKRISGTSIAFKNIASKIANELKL
# PAK2, sequence (Q13177 whole entry): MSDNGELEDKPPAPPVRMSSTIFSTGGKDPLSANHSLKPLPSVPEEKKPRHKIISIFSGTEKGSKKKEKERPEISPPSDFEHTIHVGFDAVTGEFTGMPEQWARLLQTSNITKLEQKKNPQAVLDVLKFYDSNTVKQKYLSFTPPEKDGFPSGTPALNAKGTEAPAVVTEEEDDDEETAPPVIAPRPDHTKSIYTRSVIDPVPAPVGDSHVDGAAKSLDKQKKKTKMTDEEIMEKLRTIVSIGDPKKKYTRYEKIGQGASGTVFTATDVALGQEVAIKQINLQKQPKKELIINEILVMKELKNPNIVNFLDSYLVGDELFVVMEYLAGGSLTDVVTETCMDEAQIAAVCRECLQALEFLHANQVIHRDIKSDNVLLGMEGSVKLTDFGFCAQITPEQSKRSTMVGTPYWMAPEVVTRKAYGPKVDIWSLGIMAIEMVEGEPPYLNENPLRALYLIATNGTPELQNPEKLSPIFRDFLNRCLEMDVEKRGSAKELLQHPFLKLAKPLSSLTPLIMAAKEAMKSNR
smiles,measurement,setting,value
Cc1ccc(NC(=O)c2cccc(C(F)(F)F)c2)cc1Nc1cc(-c2cccnc2)nc2[nH]ccc12 [HZX-02-059],remaining binding at 1 µM,BMPR2,100%
same,remaining binding at 1 µM,CDK7,69%
same,remaining binding at 1 µM,CDK9,100%
same,remaining binding at 1 µM,CSNK1A1L,92%
same,remaining binding at 1 µM,CSNK1D,96%
same,remaining binding at 1 µM,CSNK1G2,96%
same,remaining binding at 1 µM,EGFR(G719C),96%
same,remaining binding at 1 µM,EGFR(L861Q),76%
same,remaining binding at 1 µM,EGFR(T790M),94%
same,remaining binding at 1 µM,FGFR3(G697C),100%
same,remaining binding at 1 µM,IKK-alpha,100%
same,remaining binding at 1 µM,LATS2,67%
same,remaining binding at 1 µM,MARK3,92%
same,remaining binding at 1 µM,MST4,80%
same,remaining binding at 1 µM,PAK2,88%
same,remaining binding at 1 µM,PFTK1,98%
same,remaining binding at 1 µM,PIK3C2G,86%
same,remaining binding at 1 µM,PRKD1,96%
same,remaining binding at 1 µM,PRKD2,92%
same,remaining binding at 1 µM,[1],100%
same,remaining binding at 1 µM,TRKB,100%
same,remaining binding at 1 µM,TRPM6,50%
same,remaining binding at 1 µM,VPS34,79%
